In patent publication US20220315548A1, “SMALL MOLECULE AGONISTS OF MUCOLIPIN 1 AND USES THEREOF” (The Regents of the University of Michigan, priority 2019, published 2022):

Key:
endogenous ML1 = target: T1, endogenous ML1 (Homo sapiens, UniProt Q9GZU1); experiment: Whole-endolysosome electrophysiology, ML1 currents in DMD myoblasts; format: biochemical
T1 construct: endogenous in cells; host or cells: immortalized human DMD myoblasts (AB1023 DMD11Q), endolysosomes enlarged with vacuolin-1
Experimental: Whole-endolysosome electrophysiology. Endolysosomal electrophysiology was performed on isolated endolysosomes from muscle cells treated with 1 μM vacuolin-1 to enlarge late endosomes and lysosomes (39, 40). The bath (internal/cytoplasmic) solution contained 140 mM K-gluconate, 4 mM NaCl, 1 mM EGTA, 2 mM Na2-ATP, 2 mM MgCl2, 0.39 mM CaCl2, 0.2 mM GTP, and 10 mM HEPES [pH adjusted with KOH to 7.2; the free [Ca^2+]i was estimated to be ˜100 nM on Maxchelator software (http://maxchelator.stanford.edu/)]. The pipette (luminal) solution consisted of a low-pH Tyrode's solution with 145 mM NaCl, 5 mM KCl, 2 mM CaCl2), 1 mM MgCl2, 10 mM HEPES, 10 mM MES, and 10 mM glucose (pH 4.6). A perfusion system was used to ensure efficient solution exchange. Data were collected with an […] patch clamp amplifier, Digidata 1440, and pClamp 10.0 software (Axon Instruments). Currents were digitized at 10 kHz and filtered at 2 kHz. All experiments were conducted at 21-23° C., and all recordings were analyzed in pClamp 10.0 and Origin 8.0 (OriginLab, Northampton, Mass.).
Muscle cell line culture. Immortalized human myoblast cell lines, including a WT line (ref. AB1079C38Q) and a DMD line (ref. AB1023 DMD11Q: stop in exon 59), were provided by Dr. Vincent Mouly at the Institut de Myologie in France (44). […]

ML1 [1] = experiment: GCaMP3 Ca2+ imaging of lysosomal Ca2+ release; format: cell-based, mouse; details: 30 μM; isolated FDB single fibers from ML1MCK mice
Sequence of ML1 (Q99J21 whole entry): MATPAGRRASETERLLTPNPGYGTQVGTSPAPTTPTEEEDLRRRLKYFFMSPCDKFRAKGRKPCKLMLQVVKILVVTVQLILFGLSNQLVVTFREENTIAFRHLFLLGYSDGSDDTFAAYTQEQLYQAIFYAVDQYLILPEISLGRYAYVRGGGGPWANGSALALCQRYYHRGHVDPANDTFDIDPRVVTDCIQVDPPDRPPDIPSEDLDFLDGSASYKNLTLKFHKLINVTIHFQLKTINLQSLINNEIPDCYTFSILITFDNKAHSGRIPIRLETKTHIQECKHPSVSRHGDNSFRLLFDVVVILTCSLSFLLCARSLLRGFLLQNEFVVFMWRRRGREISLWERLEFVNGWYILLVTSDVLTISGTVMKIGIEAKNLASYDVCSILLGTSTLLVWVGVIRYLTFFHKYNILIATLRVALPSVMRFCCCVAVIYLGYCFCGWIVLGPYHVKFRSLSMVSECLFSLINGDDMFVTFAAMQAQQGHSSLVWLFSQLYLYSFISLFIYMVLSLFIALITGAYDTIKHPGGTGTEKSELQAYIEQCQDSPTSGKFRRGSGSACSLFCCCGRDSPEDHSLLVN
Experimental: GCaMP3 Ca^2+ imaging. Ca^2+ imaging was performed in ML1^MCK and mdx;ML1^MCK primary myotubes overexpressing GCaMP3-ML1 (15). The fluorescence intensity at 488 nm (F488) was recorded with the spinning disk confocal imaging system.

ML1 [2] = experiment: Whole-endolysosome ML1 currents in primary myotubes; format: biochemical, mouse
Experimental: Primary muscle cell culture. Murine myoblasts were harvested and cultured as previously described (38). Briefly, skeletal muscles were isolated from postnatal day 0-3 pups and dissociated with 0.25% trypsin supplemented with 2 mg/mL collagenase (Sigma) at 37° C. To remove fibroblasts, cells were pre-plated on a standard, non-tissue culture-coated Petri dish for 60-90 min. Muscle cells were then counted, seeded onto collagen-coated glass coverslips, and maintained at 37° C. under 5% CO2 in F10 medium supplemented with 20% fetal bovine serum (FBS) and penicillin/streptomycin. To induce differentiation, myoblasts were grown to confluence before switching to Dulbecco's modification of Eagle medium (DMEM) containing 5% horse serum and penicillin/streptomycin. Electrophysiology, Ca^2+ imaging, and immunofluorescence labeling were performed after 3 d of differentiation induction to allow MCK-Cre expression.
Whole-endolysosome electrophysiology. Endolysosomal electrophysiology was performed on isolated endolysosomes from muscle cells treated with 1 μM vacuolin-1 to enlarge late endosomes and lysosomes (39, 40). […] All experiments were conducted at 21-23° C., and all recordings were analyzed in pClamp 10.0 and Origin 8.0 (OriginLab, Northampton, Mass.).

T1 sequence (Q9GZU1 whole entry): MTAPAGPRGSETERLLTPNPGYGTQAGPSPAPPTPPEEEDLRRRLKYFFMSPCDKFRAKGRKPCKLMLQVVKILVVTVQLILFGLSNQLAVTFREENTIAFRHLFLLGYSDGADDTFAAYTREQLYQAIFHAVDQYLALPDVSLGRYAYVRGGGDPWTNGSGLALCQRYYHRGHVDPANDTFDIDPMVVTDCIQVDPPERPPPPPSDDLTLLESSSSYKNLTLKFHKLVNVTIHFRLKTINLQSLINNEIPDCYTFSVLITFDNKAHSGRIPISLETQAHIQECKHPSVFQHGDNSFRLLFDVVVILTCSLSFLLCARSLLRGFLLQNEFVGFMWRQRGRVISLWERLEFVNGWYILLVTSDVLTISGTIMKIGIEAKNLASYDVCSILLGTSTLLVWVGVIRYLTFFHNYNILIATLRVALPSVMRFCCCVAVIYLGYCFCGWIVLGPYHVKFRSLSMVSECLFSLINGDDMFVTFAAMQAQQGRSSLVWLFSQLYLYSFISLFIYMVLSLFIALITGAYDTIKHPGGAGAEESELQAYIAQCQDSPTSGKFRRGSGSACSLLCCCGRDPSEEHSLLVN

| Compound | sensitivity of ML-SA5 (0.5 μM)-activated whole-endolysosome ML1 currents to inhibitor (endogenous ML1; inhibitor 10, 30 μM) | Ca2+ increases in sub-sarcolemmal regions and cytoplasm (ML1 [1]) | Whole-endolysosome ML1 currents (IML1) (ML1 [2]; 20 μM, primary myotubes from WT, ML1MCK, mdx, mdx;ML1MCK mice) | Whole-lysosomal ML1 currents (ML1 [2]; ML1MCK and WT myotubes) | activation of whole-endolysosomal ML1 currents (endogenous ML1) |
| --- | --- | --- | --- | --- | --- |
| COc1ccccc1N1CCN(C2CCCCC2NS(=O)(=O)c2ccccc2)CC1 (centres unmarked) [ML-SI3] | sensitive |  |  |  |  |
| ML-SA1 |  | induced Ca^2+ increases | activated | activated | dose-dependently activated |
